system: Ba/F3 LMNA-NTRK1-G595R cells; assay: Proliferation of Ba/F3 LMNA-NTRK1-G595R cells (CellTiter-Glo); format: cell-based; conditions: Mus musculus, BaF3; Table 5; 72 hours
Source text: Ba/F3 LMNA-NTRK1-G595R is a stable transgenic cell line constructed by KYinno Biotechnology Co., Ltd. on mouse primary B cell Ba/F3 wherein NTRK1 is highly expressed with a mutation of G at position 595 to R, and fused with LMNA to form LMNA-NTRK1. • [Test method]: Promega's CellTiter-Glo® Luminescent Cell Viability Assay kit was used to evaluate the inhibitory activity of the compounds on the proliferation of Ba/F3 LMNA-NTRK1-G595R cells. • [Instrument]: Spectramax M3 multifunctional microplate reader from Molecular Devices. • [Test materials]: Ba/F3 LMNA-NTRK1-G595R cell line (constructed by KYinno Biotechnology Co., Ltd. (Beijing)), 96-well transparent flat-bottomed black-walled cell culture plate (Corning, cat #3603), RPMI-1640 media (GE, cat #SH30027.01), fetal bovine serum FBS (Thermo Fisher, cat #10099-141), CellTiter-Glo® Luminescent Cell Viability Assay kit (Promega, cat #G7572), PBS (Solarbio, cat #P1020), DMSO (Sigma, cat #D2650). • [Experimental procedure]: When resuscitating Ba/F3 LMNA-NTRK1-G595R cells, the freezing tube was quickly shaken in a 37° C. water bath to melt within 1 minute. The thawed cell suspension was mixed uniformly with RPMI1640 medium containing 10% FBS, centrifuged at 1000 rpm for 5 minutes, and the supernatant discarded. 5 mL of complete medium (RPMI1640 medium with 10% FBS) was taken to resuspend the cell pellets, charged into a cell culture flask with a bottom area of 25 cm^2, and incubated in a cell incubator at 37° C., 95% humidity and 5% CO2. Cells were allowed to passage when the number of cells reached about 10^6 cells/mL. For cell passage, the old cell suspension was directly pipetted evenly, 1/5 of the cell suspension was kept, 4 mL of new complete medium was added, after pipetting evenly, the cell flask was placed in the cell incubator for further culturing. Cell plating was performed when the number of cells reached about 10^6 cells/mL again. For cell plating, 1/5 of the cell suspension was kept for further culturing as in the cell passage method, and the remaining 4/5 of the cell suspension was placed in a 15 mL centrifuge tube, detected for cell viability by Trypan blue exclusion method to ensure that cell viability was above 90%. A cell suspension with a density of 5.56×10^4 viable cells/mL was prepared with complete medium, and 90 μL of such cell suspension was added to a 96-well cell culture plate to obtain the cell density of 5000 viable cells/mL in the cell culture plate. A control group containing no cells, no compound and only complete medium (i.e. culture medium control) and a control group containing no compound but containing cells (i.e. cell control) were set. The cell plate was placed in a cell incubator overnight. The 10 mM compound stock solution in DMSO was first serially diluted with DMSO at a dilution factor of 3.16 times, to obtain 9 concentrations, and the 10th concentration was set as DMSO control without compound. Then, PBS was used to dilute the DMSO solutions of compounds of different concentrations, at a dilution factor of 100 times, so that the DMSO concentration in the compound solution of each concentration was 1%. Finally, 10 μL of each of the above solutions was added to the corresponding cell culture plate, so that the initial compound concentration was 10 μM, with the remaining concentrations being successively diluted at a dilution factor of 3.16 times, and the DMSO content in the cell culture plate was 0.1%. The cell plate was placed in a cell incubator and cultured for 72 hours. For endpoint detection, the CellTiter-Glo reagent was melted, and the cell plate was moved to room temperature to equilibrate for 30 minutes, added with 100 μL of CellTiter-Glo for each well, and shaken on an orbital shaker for 5 minutes to fully lyse the cells. The plate was kept at room temperature for 20 minutes to stabilize the luminescence signal, and the luminescence value of each well was scanned with a multi-functional microplate reader at full wavelength. • [Test samples] […]

Row | Structure (SMILES) | IC50 [nM]
1 | Cn1ncc2cc(Oc3ccc(NC(=O)c4ccc(C5CC5)n(-c5ccc(F)cc5)c4=O)cc3F)c(-c3cn[nH]c3)cc21 [Example 2, N-(3-fluoro-4-(1-methyl-6-(1H-pyrazol-4-yl)-1H-indazol-5-yloxy)phenyl)-1-(4-fluorophenyl)-6-cyclopropyl-2-oxo-1,2-dihydmpyridine-3-carboxamide] | 752
2 | Cn1ncc2cc(Oc3ccc(NC(=O)c4ccc(C(F)(F)F)n(-c5ccc(F)cc5)c4=O)cc3F)c(-c3cn[nH]c3)cc21 [Example 1, N-(3-fluoro-4-(1-methyl-6-(1H-pyrazol-4-yl)-1H-indazol-5-yloxy)phenyl)-1-(4-fluorophenyl)-6-trifluoromethyl-2-oxo-1,2-dihydmpyridine-3-carboxamide monomethanesulfonate] | 1440
3 | CC(C)c1ccc(C(=O)Nc2ccc(Oc3cc4cnn(C)c4cc3-c3cn[nH]c3)c(F)c2)c(=O)n1-c1ccc(F)cc1 [Example 6, N-(3-fluoro-4-(1-methyl-6-(1H-pyrazol-4-yl)-1H-indazol-5-yloxy)phenyl)-1-(4-fluorophenyl)-6-isopropyl-2-oxo-1,2-dihydropyridine-3-carboxamide] | 747
4 | CCc1ccc(C(=O)Nc2ccc(Oc3cc4cnn(C)c4cc3-c3cn[nH]c3)c(F)c2)c(=O)n1-c1ccc(F)cc1 [Example 5, N-(3-fluoro-4-(1-methyl-6-(1H-pyrazol-4-yl)-1H-indazol-5-yloxy)phenyl)-1-(4-fluorophenyl)-6-ethyl-2-oxo-1,2-dihydropyridine-3-carboxamide] | 799
5 | O=C(Nc1cnn2ccc(N3CCC[C@@H]3c3cc(F)ccc3F)nc12)N1CC[C@H](O)C1 [LOXO-101, Larotrectinib, reference compound] | 3660

Second part, the compound after the results:

Row | IC50 [nM] | Structure (SMILES)
6 | 1010 | Cc1ccc(C(=O)Nc2ccc(Oc3cc4cnn(C)c4cc3-c3cn[nH]c3)c(F)c2)c(=O)n1-c1ccc(F)cc1 [Merestinib, reference compound]
7 | 4650 | Cc1ccc(C(=O)Nc2ccc(Oc3cc4cnn(C(C)C)c4cc3-c3cn[nH]c3)c(F)c2)c(=O)n1-c1ccc(F)cc1 [Example 4, N-(3-fluoro-4-(1-isopropyl-6-(1H-pyrazol-4-yl)-1H-indazol-5-yloxy)phenyl)-1-(4-fluorophenyl)-6-methyl-2-oxo-1,2-dihydmpyridine-3-carboxamide]
8 | 3150 | CCn1ncc2cc(Oc3ccc(NC(=O)c4ccc(C)n(-c5ccc(F)cc5)c4=O)cc3F)c(-c3cn[nH]c3)cc21 [Example 3, N-(3-fluoro-4-(1-ethyl-6-(1H-pyrazol-4-yl)-1H-indazol-5-yloxy)phenyl)-1-(4-fluorophenyl)-6-methyl-2-oxo-1,2-dihydmpyridine-3-carboxamide]

Source: patent US11952364B2, “TRK inhibitors useful as anticancer drugs” (TYLIGAND BIOSCIENCE (SHANGHAI) LIMITED, priority 2018, dated 2024)
